Results reported in patent publication US20110045076A1, “LINEAR ORDER RELEASE POLYMER” (priority 2008, published 2011).
In brackets after ≈: the same amount, converted by molar mass.

How the values were obtained:
[1] = Solubility study of dapivirine; assay type: physicochemical; details: for solubility: 37 °C, aqueous with cosolvent or surfactant or cyclodextrin, thermodynamic from solid; for Time to reach saturation: 37° C.
Procedure: HPLC quantification of dapivirine was conducted as follows. The HPLC system (Agilent 1050) consisted of a solvent module, quaternary pump module and a variable wavelength UV detector. For analysis of release and solubility study samples, an alkyl amide column (Supelcosil™ ABZ+Plus 3 μm, 3.3 cm×4.6 mm ID, Supelco, Bellefonte, Pa.) was used with a gradient of 50:50 acetonitrile and water to 100% acetonitrile (both containing 0.1% v/v trifluoroacetic acid, TFA) in 4 minutes at a flow rate of 1 mL/min. The retention time of dapivirine was 1.1 min. A linear calibration curve of dapivirine was obtained in the range of 1-100 ng/injection (r^2>0.99) at the detection wavelength of 286 nm. The quantification limit of HPLC for dapivirine was 0.65 ng/injection (corresponds to 2 μl of a 1 μM solution) with a signal to noise ratio greater than 10. A longer method was developed for the stability study; a C-18 column (Hypersil BDS-C18, 10 cm×4.0 mm ID, […], Thermo Electron Corporation, Waltham, Mass.) was used with acetonitrile (A) and water (B) both containing 0.1% v/v TFA as eluent at a flow rate of 1 mL/min. A gradient of 30:70 A:B to 70:30 A:B was applied in 7 minutes with retention time of dapivirine at 5.7 minutes. The HPLC method was modified for LC/MS analysis: the flow rate was reduced to 0.5 mL/min; a gradient of 30:70 A:B to 70:30 A:B in 14 minutes; the TFA concentration in the eluents was 0.05% v/v and the retention time for dapivirine was 10.5 minutes.
Solubility studies of dapivirine were conducted to determine the appropriate sink conditions for the in vitro release studies. Dapivirine is a hydrophobic molecule; therefore a co-solvent system that can provide sink conditions (solubility greater than 3 times the maximum concentration achieved in the release medium) during dapivirine release study was needed. Since a co-solvent system consisting of 50:50 v/v i-prOH:water has been utilized previously for long-term release studies of dapivirine from silicone rings^11,18, the solubility of dapivirine was determined in 50:50 and 25:75 v/v i-prOH:water solutions. Additionally, solubility of dapivirine in liposome dispersions was evaluated in an attempt to utilize them as biorelevant sink conditions.^14,21 The liposome dispersions of 10 mg/mL in 25 mM pH 4.2 acetate buffer (osmolarity adjusted to 310 mOsm/kg with NaCl) and 25 mM pH 7.6 phosphate buffer (osmolarity adjusted to 310 mOsm/kg with NaCl) were utilized. (See in vitro release studies in Example 4 for preparation of liposome dispersions.) Dapivirine (10 mg) was dispersed in test solutions (2 mL) and shaken at 37° C. at 200 rpm. Aliquots of 200 μL were withdrawn at 24 h, 48 h and 72 h. At each time point, the aliquots were centrifuged immediately for 2 minutes at 16000 g, 100 μL of the supernatant was diluted 1:10 using 100% isopropanol and quantified by HPLC. The solubility was determined by a calibration curve generated from known concentrations of dapivirine solutions in i-prOH.

[2] = In vitro release of dapivirine from PU rings (SC and MM) in 25:75 i-prOH:water; assay type: physicochemical; details: for average release rate: rings, two weeks
Procedure: The release profile of dapivirine was measured from PU-SC rods for a month after which the release kinetics from rings was evaluated for two weeks to determine the correlation of drug release rate from rods to that from rings. This may enable use of rods in place of rings for release kinetics evaluation thereby minimizing the scale of materials such as ring materials, quantity of drugs and volume of sink solutions required for release studies in case of monolithic IVRs. About 2 cm length segments were cut from the solid cross-sectional dapivirine loaded PU SC rods. The dimensions (length and diameter) and weight of each segment were recorded. The segments were incubated with 5 mL 25:75 v/v i-prOH:water as the sink condition in 20 mL septa covered vials at 37° C. in a water bath shaker set at 64±2 rpm. The sink was replaced with fresh co-solvent every 24±0.5 h for 30 days. HPLC analyses were performed every 2 to 5 days and the cumulative release was calculated by integrating the area under the curve using Kaleidagraph software (Synergy Software, Reading, Pa.). The release study for each loading was performed on triplicate samples. At the end of 30 days, the segments were wiped dry and the masses and dimensions of the segments were recorded. Similarly, dapivirine release kinetics were measured from rings (20 mg/g SC, 2.5 mg/g SC, 20 mg/g MM and 2.5 mg/g MM) incubated with 50 mL of 25:75 v/v i-prOH:water mixture as sink condition in 125 mL Erlenmeyer flasks with rubber septa […].
At the end of each release study, the swelling ratio was calculated by using the following equation
[formula] • where • Q=swelling ratio • Mi=mass of ring or rod segments before the release study • Mf=mass ring or rod segments after the release study

Cc1cc(C)c(Nc2ccnc(Nc3ccc(C#N)cc3)n2)c(C)c1 [dapivirine, 4-[[4-[(2,4,6-trimethylphenyl)amino]pyrimidin-2-yl]amino]benzonitrile]
solubility ([1]; 10 mg/mL liposome dispersion in pH 4.2 acetate buffer, 10 mg/mL pH 4.2 liposome dispersion): 844 µM (≈ 278 µg/mL)
solubility ([1]; 10 mg/mL liposome dispersion in pH 7.6 phosphate buffer, 10 mg/mL pH 7.6 liposome dispersion): 165 µM (≈ 54.4 µg/mL)
Time to reach saturation ([1]; 10 mg/mL pH 4.2 liposome dispersion): 48 h
Time to reach saturation ([1]; 10 mg/mL pH 7.6 liposome dispersion): 48 h
Time to reach saturation ([1]; 25:75 i-prOH:water): 48 h
dapivirine solubility ([1]; 25:75 v/v i-prOH:water solution): 93 μM/L
solubility ([1]; 25:75 v/v i-prOH:water, 25:75 i-prOH:water): 93 µM (≈ 30.6 µg/mL)
Time to reach saturation ([1]; 50:50 i-prOH:water): 24 h
solubility ([1]; 50:50 v/v i-prOH:water, 50:50 i-prOH:water): 3310 µM (≈ 1090 µg/mL)
average flux from rings (SC) higher than from rods (SC) ([2]; 2.5 mg/g SC): 18%
average flux from rings (SC) higher than from rods (SC) ([2]; 20 mg/g SC): 12%
release kinetics of SC rings vs MM rings ([2]; p>0.05, unpaired two tailed t-test): no significant difference
release rate (order) ([2]; rings SC and MM, 25:75 i-prOH:water, 37° C.): zero order release rate
average release rate ([2]; 2.5 mg/g dapivirine loading, 25:75 i-prOH:water, 37° C.): 64 ± 1 µg/day
average release rate ([2]; 20 mg/g dapivirine loading, 25:75 i-prOH:water, 37° C.): 473 ± 36 µg/day
